Test results published in patent US10584117B2, “1,3,4-oxadiazole amide derivative compound as histone deacetylase 6 inhibitor, and pharmaceutical composition containing same” (Chong Kun Dang Pharmaceutical Corp., priority 2015, dated 2020).
pIC50: −log10 of the molar value.

Key:
[1] = target: T1, human recombinant HDAC6 (Homo sapiens, UniProt Q9UBN7); assay: HDAC enzyme activity inhibition assay (HDAC6, fluorimetric kit); type: biochemical; settings: for HDAC6 selectivity (fold): HDAC6 versus HDAC1; for pIC50: same protocol as the HDAC1 test
T1 construct: purchased Calbiochem 382180
T1 sequence (Q9UBN7 1-1215): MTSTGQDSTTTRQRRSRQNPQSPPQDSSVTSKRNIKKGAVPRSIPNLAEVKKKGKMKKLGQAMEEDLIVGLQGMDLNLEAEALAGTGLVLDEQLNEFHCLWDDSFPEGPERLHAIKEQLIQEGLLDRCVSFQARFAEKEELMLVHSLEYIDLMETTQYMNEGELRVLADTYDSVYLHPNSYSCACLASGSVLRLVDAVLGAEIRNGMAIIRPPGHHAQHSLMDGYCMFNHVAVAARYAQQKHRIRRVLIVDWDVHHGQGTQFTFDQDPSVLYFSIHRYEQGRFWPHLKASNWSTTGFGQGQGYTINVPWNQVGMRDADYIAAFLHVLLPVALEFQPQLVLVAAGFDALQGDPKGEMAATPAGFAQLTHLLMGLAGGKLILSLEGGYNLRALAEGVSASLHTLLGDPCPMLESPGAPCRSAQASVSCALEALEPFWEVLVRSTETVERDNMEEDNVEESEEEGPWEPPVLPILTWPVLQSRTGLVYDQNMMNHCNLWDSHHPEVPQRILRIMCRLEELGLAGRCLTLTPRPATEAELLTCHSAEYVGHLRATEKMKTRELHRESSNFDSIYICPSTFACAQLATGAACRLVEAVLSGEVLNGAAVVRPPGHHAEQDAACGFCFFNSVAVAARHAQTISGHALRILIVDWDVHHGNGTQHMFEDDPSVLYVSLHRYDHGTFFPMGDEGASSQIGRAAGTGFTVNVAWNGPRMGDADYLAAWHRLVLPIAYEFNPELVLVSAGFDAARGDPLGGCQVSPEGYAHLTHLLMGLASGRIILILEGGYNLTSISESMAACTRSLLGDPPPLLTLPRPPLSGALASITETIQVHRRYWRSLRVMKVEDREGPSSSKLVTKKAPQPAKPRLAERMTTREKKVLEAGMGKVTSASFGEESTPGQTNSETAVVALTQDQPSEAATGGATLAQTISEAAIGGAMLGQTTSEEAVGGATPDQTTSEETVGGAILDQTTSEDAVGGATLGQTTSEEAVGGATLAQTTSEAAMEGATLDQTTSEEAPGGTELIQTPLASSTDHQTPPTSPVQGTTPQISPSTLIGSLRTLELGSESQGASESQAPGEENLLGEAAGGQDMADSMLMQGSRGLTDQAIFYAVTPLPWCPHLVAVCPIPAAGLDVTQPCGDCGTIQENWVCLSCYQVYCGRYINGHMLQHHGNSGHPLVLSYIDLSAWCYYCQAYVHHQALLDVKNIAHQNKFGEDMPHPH
Method in brief: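 Fluorimetric kit assay: human recombinant HDAC1 or HDAC6 (0.3 μg) reacted with 10 μM Fluor de Lys-SIRT1 substrate and 5-fold serially diluted compound for 60 minutes at 30° C, followed by 30 minutes of developer. Fluorescence was read at Ex 360/Em 460, and IC50 values were calculated from it.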

[2] = target: T2, human recombinant HDAC1 (Homo sapiens, UniProt Q13547); assay: HDAC enzyme activity inhibition assay (HDAC1, fluorimetric kit); type: biochemical; settings: 0.3 μg enzyme, 10 μM substrate, 30° C., 60 minutes
T2 construct: purchased Enzo Life Science BML-SE456
Experimental: In order to examine the HDAC6 selectivity of the compounds of formula I of the present invention by HDAC1 and HDAC6 enzymatic activity inhibition assays, an experiment was performed using a conventional substance as a control. HDAC enzyme activity was measured using a HDAC Fluorimetric Drug Discovery Kit (BML-AK511, 516) from Enzo Life Science. For the HDAC1 enzyme activity test, human recombinant HDAC1 (BML-SE456) was used as an enzyme source, and Fluor de Lys®-“SIRT1 (BNL-KI177) was used as a substrate. A 5-fold dilution of the compound was seeded into a 96-well plate, and then 0.3 μg of the enzyme and 10 μM of the substrate were added to each well of the plate and allowed to react at 30° C. for 60 minutes. Then, Fluor de Lys®-Developer II (BML-KI176) was added thereto and allowed to react for 30 minutes, after which the fluorescence value (Ex 360, Em 460) was measured using a multi-plate reader (Flexstation 3, Molecular Device). The HDAC6 enzyme was tested using human recombinant HDAC6 (382180) from Calbiochem, according to the same protocol as the HDAC1 enzyme activity test method. Based on the resulting values, each IC50 value was calculated using GraphPad Prism4.0 program.

T2 sequence (Q13547 whole entry): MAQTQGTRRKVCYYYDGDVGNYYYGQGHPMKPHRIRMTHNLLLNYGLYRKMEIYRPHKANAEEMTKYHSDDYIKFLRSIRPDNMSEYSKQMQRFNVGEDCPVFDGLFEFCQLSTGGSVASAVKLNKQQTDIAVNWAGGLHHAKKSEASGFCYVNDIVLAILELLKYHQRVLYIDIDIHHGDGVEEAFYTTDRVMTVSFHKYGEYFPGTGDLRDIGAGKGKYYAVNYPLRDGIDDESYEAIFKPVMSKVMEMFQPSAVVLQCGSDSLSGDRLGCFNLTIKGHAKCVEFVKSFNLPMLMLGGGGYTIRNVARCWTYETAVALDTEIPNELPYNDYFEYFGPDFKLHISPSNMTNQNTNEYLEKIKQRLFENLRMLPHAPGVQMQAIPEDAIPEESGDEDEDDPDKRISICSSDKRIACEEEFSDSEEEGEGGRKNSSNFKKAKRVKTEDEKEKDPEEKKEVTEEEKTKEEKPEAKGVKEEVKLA

| Compound | HDAC6 selectivity (fold) [1] | pIC50 [1] | pIC50 [2] |
| --- | --- | --- | --- |
| O=C(C1CCN(Cc2ccccc2)CC1)N(Cc1ccc(-c2nnc(C(F)(F)F)o2)cc1)c1ccccc1 [Compound 11166, 1-benzyl-N-phenyl-N-(4-(5-(trifluoromethyl)-1,3,4-oxadiazol-2-yl)benzyl)piperidine-4-carboxamide] | 194 fold | 6.29 | 4.56 |
| O=C(C1CCS(=O)(=O)CC1)N(Cc1ccc(-c2nnc(C(F)(F)F)o2)cc1F)c1ccc(F)c(Cl)c1 [Compound 11602, N-(3-chloro-4-fluorophenyl)-N-(2-fluoro-4-(5-(trifluoromethyl)-1,3,4-oxadiazol-2-yl)benzyl)tetrahydro-2H-thiopyran-4-carboxamide 1,1-dioxide] | 263 fold | 6.42 |  |
| O=C(C1CCS(=O)(=O)CC1)N(Cc1ccc(-c2nnc(C(F)F)o2)cc1F)c1ccc(F)c(Cl)c1 [Compound 11603, N-(3-chloro-4-fluorophenyl)-N-(4-(5-(difluoromethyl)-1,3,4-oxadiazol-2-yl)-2-fluorobenzyl)tetrahydro-2H-thiopyran-4-carboxamide 1,1-dioxide] | 685 fold | 6.84 |  |
| O=C(CN1CCS(=O)(=O)CC1)N(Cc1ccc(-c2nnc(C(F)F)o2)cc1F)c1ccc(F)c(Cl)c1 [Compound 11610, N-(3-chloro-4-fluorophenyl)-N-(4-(5-(difluoromethyl)-1,3,4-oxadiazol-2-yl)-2-fluorobenzyl)-2-(1,1-dioxidothiomorpholino)acetamide] | 690 fold | 6.84 |  |
| CC(=O)N1CCN(CC(=O)N(Cc2ccc(-c3nnc(C(F)F)o3)cc2F)c2ccc(F)c(Cl)c2)CC1 [Compound 11611, 2-(4-acetylpiperazin-1-yl)-N-(3-chloro-4-fluorophenyl)-N-(4-(5-(difluoromethyl)-1,3,4-oxadiazol-2-yl)-2-fluorobenzyl)acetamide] | 625 fold | 6.80 |  |
| O=C(C1CC1)N1CCN(CC(=O)N(Cc2ccc(-c3nnc(C(F)F)o3)cc2F)c2ccc(F)c(Cl)c2)CC1 [Compound 11612, N-(3-chloro-4-fluorophenyl)-2-(4-(cyclopropanecarbonyl)piperazin-1-yl)-N-(4-(5-(difluoromethyl)-1,3,4-oxadiazol-2-yl)-2-fluorobenzyl)acetamide] | 535 fold | 6.73 |  |
| CS(=O)(=O)N1CCN(CC(=O)N(Cc2ccc(-c3nnc(C(F)F)o3)cc2F)c2ccc(F)c(Cl)c2)CC1 [Compound 11613, N-(3-chloro-4-fluorophenyl)-N-(4-(5-(difluoromethyl)-1,3,4-oxadiazol-2-yl)-2-fluorobenzyl)-2-(4-(methylsulfonyl)piperazin-1-yl)acetamide] | 676 fold | 6.83 |  |
| O=C(CN1CCN(C2COC2)CC1)N(Cc1ccc(-c2nnc(C(F)F)o2)cc1F)c1ccc(F)c(Cl)c1 [Compound 11614, N-(3-chloro-4-fluorophenyl)-N-(4-(5-(difluoromethyl)-1,3,4-oxadiazol-2-yl)-2-fluorobenzyl)-2-(4-(oxetan-3-yl)piperazin-1-yl)acetamide] | 1190 fold | 7.08 |  |
| O=C(C1CCN(C2COC2)CC1)N(Cc1ccc(-c2nnc(C(F)(F)F)o2)cc1F)c1ccccc1 [Compound 11621, N-(2-fluoro-4-(5-(trifluoromethyl)-1,3,4-oxadiazol-2-yl)benzyl)-1-(oxetan-3-yl)-N-phenylpiperidine-4-carboxamide] | 358 fold | 6.55 |  |
| O=C(C1CCN(C2COC2)CC1)N(Cc1ccc(-c2nnc(C(F)F)o2)cc1F)c1ccccc1 [Compound 11622, N-(4-(5-(difluoromethyl)-1,3,4-oxadiazol-2-yl)-2-fluorobenzyl)-1-(oxetan-3-yl)-N-phenylpiperidine-4-carboxamide] | 714 fold | 6.85 |  |
